Data as given in ChEMBL document CHEMBL4613297, “Peptides Mimicking the β7/β8 Loop of HIV-1 Reverse Transcriptase p51 as "Hotspot-Targeted" Dimerization Inhibitors” (ACS Med Chem Lett, 2020).
Calls of active or inactive are those of the source. The rule behind the calls is not given here. Where a SMILES comes first, the peptide text is derived from it. Bridges are numbered along the chain shown (N, C = ends).

Legend:
[1] = molecular target: Human immunodeficiency virus type 1 reverse transcriptase (Human immunodeficiency virus 1) (UniProt Q72547); assay: Inhibition of recombinant HIV-1 group M subtype B reverse transcriptase p51/p66 expressed in Escherichia coli M15 assessed as change in melting temperature at 100 uM incubated for 1 hr by sypro orange dye based differential scanning fluorimetric analysis; conditions: HIV-1 M:B
[2] = molecular target: T1, Human immunodeficiency virus type 1 reverse transcriptase (Human immunodeficiency virus 1, UniProt Q72547); assay: Inhibition of HIV-1 reverse transcriptase His-tagged p51 heterodimerization with HIV-1 reverse transcriptase p66 incubated for 16 hrs by ELISA
[3] = molecular target: T1, Human immunodeficiency virus type 1 reverse transcriptase; assay: Inhibition of recombinant HIV-1 BH10 reverse transcriptase p51/p66 expressed in Escherichia coli preincubated for 10 mins followed by D38/25PGA template-primer addition and measured after 10 to 30 secs by denaturing PAGE based single nucleotide incorporation assay; parameters: species or system Human immunodeficiency virus type 1 BH10
[4] = molecular target: Human immunodeficiency virus type 1 reverse transcriptase (Human immunodeficiency virus 1) (UniProt Q72547); assay: Inhibition of RNase H activity of recombinant HIV-1 BH10 reverse transcriptase p51/p66 expressed in Escherichia coli at 100 uM; conditions: Human immunodeficiency virus type 1 BH10
[5] = molecular target: T1, Human immunodeficiency virus type 1 reverse transcriptase; assay: (§1) Inhibition of recombinant HIV-1 BH10 reverse transcriptase p51/p66 expressed in Escherichia coli assessed as reduction in recovery of DNA polymerase activity preincubated with 15% acetonitrile for 15 hrs followed by compound addition and acetonitrile reduced to <1% using poly(rA)/oligo(dT)16 as template/primer in presence of [3H]dTTP; parameters: species or system Human immunodeficiency virus type 1 BH10
[6] = molecular target: Human immunodeficiency virus type 1 reverse transcriptase (Human immunodeficiency virus 1) (UniProt Q72547); assay: as §1, with “activity at 200 uM” for “activity”, “[3H]dTTP relative to control” for “[3H]dTTP”; conditions: Human immunodeficiency virus type 1 BH10

Molecule | ΔTm [1] | IC50 [2] | IC50 [3] | inhibition [4] | IC50 [5] | inhibition [6]
Cc1cn([C@@H]2O[C@H](CO[Si](C)(C)C(C)(C)C)[C@]3(C=CS(=O)(=O)O3)[C@H]2O[Si](C)(C)C(C)(C)C)c(=O)[nH]c1=O | -1.4 °C | – | – | – | – | –
H-IPSINNETPGI-OH | -13.6 °C | > 150 µM | > 145 µM | inactive | – | –
CC[C@H](C)[C@@H]1NC(=O)[C@H](CCCNC(=N)N)NC(=O)[C@H](Cc2ccc(O)cc2)NC(=O)[C@H]2CCCN2C(=O)[C@@H]2CCCN2C(=O)[C@H](Cc2ccccc2)NC(=O)[C@H]([C@H](C)O)NC(=O)[C@H]([C@@H](C)CC)NC(=O)[C@@H]2CCCN2C(=O)[C@H](CC(N)=O)NC(=O)[C@H]([C@@H](C)CC)NC(=O)[C@@H](CO)NC(=O)[C@H](CC(N)=O)NC(=O)[C@@H](CCC(=O)O)NC(=O)[C@H]([C@H](C)O)NC(=O)[C@@H]2CCCN2C(=O)CNC1=O | -15 °C | – | > 145 µM | inactive | – | –
CC[C@H](C)[C@@H]1NC(=O)CNC(=O)[C@@H]2CCCN2C(=O)[C@H]([C@@H](C)O)NC(=O)C(CCC(=O)O)NC(=O)[C@H](CC(N)=O)NC(=O)C(CC(N)=O)NC(=O)[C@@H]([C@@H](C)CC)NC(=O)[C@H](CO)NC(=O)[C@@H]2CCCN2C(=O)[C@H]([C@@H](C)CC)NC(=O)[C@@H](N)CSSC[C@@H](C(=O)O)NC1=O (stereo partly drawn) | -14.5 °C | 137 µM | > 145 µM | inactive | > 250 µM | < 5%

The next lines start with the values.

ΔTm [1] | IC50 [2] | IC50 [3] | inhibition [4] | IC50 [5] | inhibition [6] | Molecule
-15.8 °C | 61 µM | > 145 µM | inactive | > 250 µM | 43% | CC[C@H](C)[C@@H]1NC(=O)[C@H](CO)NC(=O)[C@H](N)CSSC[C@@H](C(=O)O)NC(=O)[C@@H]2CCCN2C(=O)[C@H]([C@@H](C)O)NC(=O)[C@H](CCC(=O)O)NC(=O)[C@H](CC(N)=O)NC(=O)[C@H](CC(N)=O)NC1=O
-15.6 °C | – | > 145 µM | inactive | – | – | CC[C@H](C)[C@H](NC(=O)CNC(=O)[C@@H]1CCCN1C(=O)[C@@H](NC(=O)[C@H](CCC(=O)O)NC(=O)[C@H](CC(N)=O)NC(=O)[C@H](CC(N)=O)NC(=O)[C@@H](NC(=O)[C@H](CO)NC(=O)[C@@H]1CCCN1C(=O)[C@@H](NC(=O)[C@@H](NC(=O)[C@@H](N)Cc1ccccc1)[C@@H](C)O)[C@@H](C)CC)[C@@H](C)CC)C(C)O)C(=O)N[C@@H](CCCNC(=N)N)C(=O)N[C@@H](Cc1ccc(O)cc1)C(=O)O (single isomer, unassigned)
-15.8 °C | 37 µM | 109 µM | inactive | 203 µM | – | CC[C@H](C)[C@@H]1NC(=O)[C@@H](N)CSSC[C@@H](C(=O)O)NC(=O)[C@H](CCC(=O)O)NC(=O)[C@H](CC(N)=O)NC(=O)[C@H](CC(N)=O)NC1=O (H-CINNEC-OH; disulfide 1-6)
